Literature values in patent US20140141044A1, “Cord Colitis Syndrome Pathogen” (Dana-Farber Cancer Institute, Inc., priority 2012, published 2014).

Test system: B. enterica
Details: direct or inferred from related organisms

Cc1ncc([N+](=O)[O-])n1CCO [metronidazole]
sensitivity of B. enterica: direct or inferred sensitivity
